Source: patent US20150315188A1, “COMPOUNDS AND METHODS FOR TREATMENT OF HYPERTENSION” (MEDIVATION TECHNOLOGIES, INC., priority 2012, published 2015)
Marks after values point to notes of the source that are not given here.

Tests used:
dog hepatocytes = assay: Stability in the presence of dog hepatocytes; format: in vitro ADME, Beagle dog; conditions: dog hepatocytes, 5 μM, 37° C., average of duplicates; ^a = 0-120 minute time points
Protocol: (§1) Compounds of the invention were tested for stability in the presence of dog, rat and human hepatocytes over a 4 hour period by LC/MS/MS. The study was performed by Integrated Analytical Solutions, Berkeley, Calif.
(§2) Reference Standards and Solutions: Compounds of the invention were stored as powders at ambient temperature in a desiccator and protected from light. Reference stock solutions of Compound Nos. 50a, 50b, 79a, 82, 91a and 178d, as 20 mM in DMSO were prepared and subsequently diluted to 2 mM in MeOH to provide working stock solutions (WSS). Unused standard solutions were stored at −20° C.
(§3) Hepatocyte Preparation: Human (mixed gender), Beagle dog (male) and Sprague Dawley rat (male) cryopreserved hepatocytes were purchased from Life Technologies Corporation. Hepatocytes were removed from liquid nitrogen, quickly thawed in a 37° C. water bath and transferred to Hepatocyte Thawing/Plating Medium (Cryopreserved Hepatocyte Recovery Medium, CHRM, Life Technologies Inc.). The cells were pelleted by slow speed centrifugation (˜100×g, 6 min) and resuspended at a high cell density. Hepatocyte viability was determined by trypan blue exclusion. Hepatocyte incubation medium (Life Technologies, Inc.) was added to generate a cell density of 2.0×10^6 cells/mL.
(§4) Hepatocyte Incubations for Stability: The 2 mM WSS was diluted 1 in 200 in hepatocyte incubation medium (pH 7.4) to 10 μM. A solution containing control compounds was prepared similarly to contain 10 μM each of dextromethorphan and testosterone. The solutions of test compounds and controls at 10 μM in hepatocyte incubation medium were pre-incubated at 37° C. for 10 min. Aliquots (250 μL) of hepatocyte suspensions (at 2.0×10^6 cells/mL) were transferred to appropriate 48-well plates and pre-incubated at 37° C. for 10 minutes. Metabolism was initiated by adding 250 μL pre-incubated medium (containing test drug) to wells containing cells. A negative control reaction excluding hepatocytes was used to monitor aqueous stability and/or non-specific adsorption. The final reaction mixtures contained 5 μM of test or control compound and 1.0×10^6 cells/mL. All reactions were performed in duplicate and carried at 37° C. in an incubator. Dextromethorphan and testosterone were used as control drugs to verify hepatocyte activity.
(§5) Aliquots were removed from each metabolism reaction at 0, 0.5, 2 and 4 hours. The reactions were terminated by adding each aliquot to a vessel containing 2× volumes (80 μL) of Internal Standard Solution (acetonitrile containing 50 ng/mL 2-(2,8-dimethyl-3,4-dihydro-1H-pyrido[4,3-b]indol-5(2H)-yl)-1-(pyridin-4-yl)ethanol (ISS1), 50 ng/mL of 2-(2,8-dimethyl-3,4-dihydro-1H-pyrido[4,3-b]indol-5(2H)-yl)-1-(piperidin-1-yl)ethanone (ISS2) and 5 ng/mL diphenhydramine. Terminated reactions were centrifuged at 6000 g for 30 mins at 4° C. to remove the precipitated proteins and cell debris. Following centrifugation, 20 μL of each supernatant was transferred to a deep-well microplate and diluted with 5× volumes (100 μL) of 0.2% formic acid in water. Compound 178d samples were diluted with 5× volumes (100 μL) of 0.1% HFBA in water. Samples were analyzed by LC/MS/MS.
(§6) Calculation of Metabolism Parameters: Percent remaining was measured by dividing the analyte/IS peak area ratio at the designated sample time by the peak area ratio at time 0. ISS1 served as the IS for Compound No. 178d. ISS2 served as the IS for Compound nos. 50a, 50b, 79a, 82 and 91a. The metabolic half-life (T1/2) was calculated using all time points unless otherwise noted. The T1/2 values were calculated as 0.693/k, where k is the slope of the log analyte/internal standard peak area ratio versus time. Metabolism rate was calculated by dividing the starting concentration of substrate by the concentration of hepatocytes, then dividing by the T1/2 value.

human hepatocytes = assay: Stability in the presence of human hepatocytes; format: in vitro ADME; conditions: human hepatocytes, 5 μM, 37° C., average of duplicates; ^a = 0-120 minute time points
Protocol: as §1, §2, §3, §4, §5, §6

rat hepatocytes = assay: Stability in the presence of rat hepatocytes; format: in vitro ADME, Sprague Dawley rat; conditions: rat hepatocytes, 5 μM, 37° C., average of duplicates; ^a = 0-120 minute time points
Protocol: as §1, §2, §3, §4, §5, §6

T1/2 Dog (dog hepatocytes): 100^a min
T1/2 Human (human hepatocytes): 82^a min
T1/2 Rat (rat hepatocytes): >4 h
Compound: Cc1cc2c3c(n(CC(C)(O)c4ccncc4)c2cc1Cl)CCN1CCCC31 (single isomer, unassigned) [50b]
